Source: PubChem BioAssay AID1963827 (Molecular Pharmacology Branch, DTP, NCI, 2024)
Several values for one entry are separate records, joined by “and”; a condition that tells them apart may be missing. Equal values may be shown once.

System: 994946-033-R-J1-PDC complex spheroid viability
Assay: Anticancer human tumor 994946-033-R-J1-PDC patient-derived melanoma cell line growth inhibition [POLQ]
Conditions: for viability, T/C: stronger effect = lower value
Protocol: Multicellular complex tumor spheroid response to Polymerase (POL) inhibitors (novobiocin, ART-558, RP6685) in combination with a variety of drugs and investigational agents in selected tumor cell lines
The POL inhibitors (novobiocin, ART-558, and RP6685) were evaluated both individually and in combination with standard of care and investigational anticancer small molecules within a complex spheroid model of solid tumors. . Complex spheroids include a stromal component modeled by human endothelial cells (HUVEC) and fibroblasts modeled by human mesenchymal stem cells (MSCs). The concentration ranges selected for each drug and investigational agent were based upon clinically achievable concentrations if the clinical Cmax of the agent was known.
Compounds. The drugs and investigational agents: novobiocin (NSC847541), ART-558 (NSC835418), RP-6685 (NSC848927), peposertib (NSC802822), ceralasertib (NSC780249), elimusertib (NSC800525), camonsertib (NSC841442), AZD-1390 (NSC803789), olaparib (NSC753686), talazoparib (NSC767125), rucaparib (NSC756644), sotorasib (NSC818433), MRTX-1133 (NSC836407), SN-38 (NSC673596), topotecan (NSC609699), epotoside (NSC141540), doxorubicin (NSC123127), gemcitabine (NSC613327), 5-fluorouracil (NSC19893), paclitaxel (NSC125973), vemurafenib (NSC761431), MSA-2 (NSC828583), SN-011 (NSC837082), adavosertib (NSC754352), prexasertib (NSC758257), carboplatin (NSC241240) and oxaliplatin (NSC266046), were obtained from the National Cancer Institute (NCI) Developmental Therapeutics Program Chemical Repository (21). The FDA-approved anticancer drug set is available from the Developmental Therapeutics Program at https://dtp.cancer.gov/organization/dscb/obtaining/. […] The stock solutions were prepared in dimethyl sulfoxide (DMSO, Sigma-Aldrich, St. Louis, MO, cat. D2650), except for the platinum compounds which were prepared in saline (Quality Biological, Gaithersburg, MD, cat. 114-055-101), at 800-fold the tested concentration and stored at -70 degrees C prior to their use. All drugs and investigational agents were tested over a range starting from a high concentration at or near the clinical Cmax and decreasing in half-log increments. If the clinical Cmax for an agent had not been determined, the highest concentration tested was 10 microM, except for SN-38, which was tested at a high concentration of 1 microM.
Cell Culture. All cells were maintained in an incubator at 37 degrees C and 5% CO2 with 95% humidity. The PDC lines were cultured according to standard operating procedures established by the NCI PDMR (https://pdmr.cancer.gov). Table 3 of the manuscript, lists the cell lines along with the number of the three cell types plated to form the mct-spheroids and media for tumor cell growth. After thawing, all PDC lines, except 997537-175-T-J1-PDC and 415267-285-R-J2-PDC, were cultured in Matrigel-coated flasks prepared with a working solution of 1X Ham's F-12 nutrient mix, without supplementation (Thermo Fisher Scientific, cat. 11765054), 100 U/mL penicillin-streptomycin (Thermo Fisher Scientific, cat. 15140122), and 2.5% Matrigel (Corning Inc., Corning, NY, cat. 354248) for the first three passages. The two PDC lines 997537-175-T-J1-PDC and 415267-285-R-J2-PDC were cultured on uncoated flasks. The 857933-349-R-J2-PDC line was cultured in 6C/Colon 1B media containing advanced DMEM/F-12 (Thermo Fisher Scientific, cat. 12634028), 10 mM HEPES (Thermo Fisher Scientific, cat. 15630080), 1X GlutaMAX supplement (Thermo Fisher Scientific, cat. 35050061), 0.1 mg/mL primocin (InvivoGen, San Diego, CA, cat. ant-pm-2), 10% defined fetal bovine serum, heat inactivated (HyClone Laboratories Inc., Logan, UT, cat. SH30070.03HI), 50% L-WRN conditioned media (ATCC, cat. CRL-3276), 1.25 mM N-Acetyl-L-cysteine (Sigma-Aldrich, cat. A9165), 10 mM nicotinamide (Sigma-Aldrich, cat. N0636), 1X B-27 supplement (Thermo Fisher Scientific, cat. 17504044), 1X N-2 supplement (Thermo Fisher Scientific, cat. […]
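Further: spheroids exposed to drugs for 7 days.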
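Wherever viability, T/C is given: 100% = DMSO vehicle treated spheroids.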

CC(=O)O[C@H]1C(=O)[C@@]2(C)[C@H]([C@H](OC(=O)c3ccccc3)[C@]3(O)C[C@H](OC(=O)[C@H](O)[C@@H](NC(=O)c4ccccc4)c4ccccc4)C(C)=C1C3(C)C)[C@]1(OC(C)=O)CO[C@@H]1C[C@@H]2O + Cc1cccc(N(C)C(=O)C2C(O)CCN2c2nc(C)cc(C(F)(F)F)c2C#N)c1
IC50 (curve of first compound, second compound 0.0316 µM): < 9.49 nM
IC50 (curve of first compound, second compound 0.1 µM): < 9.49 nM
IC50 (curve of first compound, second compound 0.316 µM): < 9.49 nM
IC50 (curve of first compound, second compound 1 µM): < 9.49 nM
IC50 (curve of first compound, second compound 3.16 µM): < 9.49 nM
IC50 (curve of first compound, second compound 10 µM): < 9.49 nM
viability, T/C (second compound 0.0316 µM, first compound 0.00949 µM): 19.5%
viability, T/C (second compound 0.0316 µM, first compound 0.03 µM): 19.7%
viability, T/C (second compound 0.0316 µM, first compound 0.0949 µM): 20.6%
viability, T/C (second compound 0.0316 µM, first compound 0.3 µM): 13.5%
viability, T/C (second compound 0.0316 µM, first compound 0.949 µM): 9.96%
viability, T/C (second compound 0.0316 µM, first compound 3 µM): 8.94%
viability, T/C (second compound 0.1 µM, first compound 0.00949 µM): 22.4%
viability, T/C (second compound 0.1 µM, first compound 0.03 µM): 20.6%
viability, T/C (second compound 0.1 µM, first compound 0.0949 µM): 16.8%
viability, T/C (second compound 0.1 µM, first compound 0.3 µM): 16.8%
viability, T/C (second compound 0.1 µM, first compound 0.949 µM): 10.6%
viability, T/C (second compound 0.1 µM, first compound 3 µM): 12.3%
viability, T/C (second compound 0.316 µM, first compound 0.00949 µM): 16.1%
viability, T/C (second compound 0.316 µM, first compound 0.03 µM): 31.9%
viability, T/C (second compound 0.316 µM, first compound 0.0949 µM): 16.3%
viability, T/C (second compound 0.316 µM, first compound 0.3 µM): 15.3%
viability, T/C (second compound 0.316 µM, first compound 0.949 µM): 14.7%
viability, T/C (second compound 0.316 µM, first compound 3 µM): 14.6%
viability, T/C (second compound 1 µM, first compound 0.00949 µM): 23.4%
viability, T/C (second compound 1 µM, first compound 0.03 µM): 21.8%
viability, T/C (second compound 1 µM, first compound 0.0949 µM): 18.9%
viability, T/C (second compound 1 µM, first compound 0.3 µM): 19.6%
viability, T/C (second compound 1 µM, first compound 0.949 µM): 12.4%
viability, T/C (second compound 1 µM, first compound 3 µM): 12.7%
viability, T/C (second compound 3.16 µM, first compound 0.00949 µM): 23%
viability, T/C (second compound 3.16 µM, first compound 0.03 µM): 24.2%
viability, T/C (second compound 3.16 µM, first compound 0.0949 µM): 20.3%
viability, T/C (second compound 3.16 µM, first compound 0.3 µM): 17.3%
viability, T/C (second compound 3.16 µM, first compound 0.949 µM): 14.5%
viability, T/C (second compound 3.16 µM, first compound 3 µM): 12.9%
viability, T/C (second compound 10 µM, first compound 0.00949 µM): 21.6%
viability, T/C (second compound 10 µM, first compound 0.03 µM): 26.2%
viability, T/C (second compound 10 µM, first compound 0.0949 µM): 23.9%
viability, T/C (second compound 10 µM, first compound 0.3 µM): 18.5%
viability, T/C (second compound 10 µM, first compound 0.949 µM): 15%
viability, T/C (second compound 10 µM, first compound 3 µM): 15.7%

COc1cccc(OCCCN)c1-c1cc(Nc2cnc(C#N)cn2)n[nH]1
viability, T/C (compound 0.00316 µM): 75.6% and 100% and 79.2%
viability, T/C (compound 0.01 µM): 60.5% and 80.8% and 75.1%
viability, T/C (compound 0.0316 µM): 14.7% and 28.4% and 65.5%
viability, T/C (compound 0.1 µM): 29.1% and 32.4% and 35.9%
viability, T/C (compound 0.316 µM): 28.6% and 28.5% and 17.2%
viability, T/C (compound 1 µM): 16.6% and 16.5% and 12.6%
IC50 (curve of compound): 13.7 nM and 19.7 nM and 57.5 nM
